Measurements from ChEMBL document CHEMBL4680363, “Novel Bicyclic Heterocycles as FGFR Inhibitors for Treating Cancer” (ACS Med Chem Lett, 2021).

biological target: Fibroblast growth factor receptor 3 (Homo sapiens, UniProt P22607); assay: Inhibition of recombinant human N-terminal His6-tagged FGFR3 (447 to 761 residues) expressed in Sf21 cells using biotinylated EQEDEPEGDYFEWLE peptide as substrate preincubated for 4 hrs followed by substrate addition and measured after 1 hr in presence of ATP by FRET assay
Sequence (P22607 whole entry, the tested form may be a part): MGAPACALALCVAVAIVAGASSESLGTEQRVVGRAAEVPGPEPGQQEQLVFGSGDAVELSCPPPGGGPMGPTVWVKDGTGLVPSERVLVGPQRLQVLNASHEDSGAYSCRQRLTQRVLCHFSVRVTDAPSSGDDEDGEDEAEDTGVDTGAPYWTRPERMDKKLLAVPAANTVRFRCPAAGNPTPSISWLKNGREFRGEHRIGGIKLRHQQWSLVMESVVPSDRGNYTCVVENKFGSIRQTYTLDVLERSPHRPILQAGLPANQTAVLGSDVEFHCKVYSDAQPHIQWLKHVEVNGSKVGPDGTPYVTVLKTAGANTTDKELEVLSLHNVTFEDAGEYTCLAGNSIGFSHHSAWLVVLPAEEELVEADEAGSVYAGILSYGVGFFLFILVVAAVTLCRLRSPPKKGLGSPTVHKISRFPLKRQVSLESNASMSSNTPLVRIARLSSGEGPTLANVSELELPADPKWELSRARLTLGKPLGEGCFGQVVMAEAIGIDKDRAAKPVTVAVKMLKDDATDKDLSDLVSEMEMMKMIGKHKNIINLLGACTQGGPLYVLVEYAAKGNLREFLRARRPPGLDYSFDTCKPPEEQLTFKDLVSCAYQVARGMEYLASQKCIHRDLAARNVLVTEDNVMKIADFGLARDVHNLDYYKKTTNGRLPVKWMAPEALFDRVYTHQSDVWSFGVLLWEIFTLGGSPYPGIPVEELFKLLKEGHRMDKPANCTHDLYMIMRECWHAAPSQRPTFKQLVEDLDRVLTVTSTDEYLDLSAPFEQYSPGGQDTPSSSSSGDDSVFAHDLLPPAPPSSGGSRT

IC50 [nM] | SMILES
< 10 | Cn1cc(-c2n[nH]c3ccc(N4CCn5cnc(C(F)(F)F)c5C4)nc23)cn1
< 10 | CC(C)C1C(=O)N(C)CCN1c1ccc2[nH]nc(-c3cc4cnccc4s3)c2n1 (stereo unspecified)
< 10 | CN1CCN(c2ccc3[nH]nc(-c4cnn(C)c4)c3n2)C(C2CC2)C1=O (stereo unspecified)
< 10 | CC1CN(c2ccc3[nH]nc(-c4cnn(C)c4)c3n2)C(C)C(=O)N1C (stereo unspecified)
< 10 | CC(C)C1C(=O)N(C)CCN1c1ccc2[nH]nc(-c3cnn(Cc4cccnc4)c3)c2n1 (stereo unspecified)
< 10 | CC(C)C1C(=O)N(C)CCN1c1ccc2[nH]nc(-c3cnn(C)c3)c2n1 (stereo unspecified)
